Assay results taken from paper PMC4471201, “Micafungin concentrations 100 mg daily in plasma and burn eschars in patients with severe burn injuries” (Critical Care, 2015).
*1 amine or outer side, *2 acyl side, *3 side chain or, on linkers, in order; H or OH if unused. Where a SMILES comes first, the peptide text is derived from it. Bridges are numbered along the chain shown (N, C = ends). [ ]: non-standard residue; d: D form. The star is where a group is joined. hTyr(3S-OH,4S-OH,3'-OSO3H) = N[C@H](C(=O)O)[C@H](O)[C@@H](O)c1ccc(O)c(OS(=O)(=O)O)c1; Orn(4R-OH,5R-OH) = O=C([C@H](C[C@@H](O)[C@@H](O)N[*:3])N[*:1])[*:2]; Pro(3S-OH,4S-Me) = C[C@H]1CN[C@H](C(=O)O)[C@H]1O; X1 = CCCCCOc1ccc(-c2cc(-c3ccc(C(=O)*)cc3)no2)cc1; Gln(3R-OH) = NC(=O)C[C@@H](O)[C@H](N)C(=O)O; Hyp = O=C(O)[C@@H]1C[C@@H](O)CN1

Tests used:
Type in all cases: in vivo
[1] = MCF levels in burn eschar tissue on day 5, HPLC; conditions: Spearman's rho test; 10 patients
Experimental: (§1) A PK study of MCF at standard dosage (100 mg/day). Cmax (end of the infusion) and Cmin (before next dose) plasma levels of MCF were obtained after first dose and at steady state (days 4 and 5 of therapy); and on day 5 in eschars (1 to 3 hours after infusion). They were measured by HPLC. Spearman's rho test was used for bivariate correlations between MCF exposure and patient's clinical factors.

[2] = Plasma levels of MCF (Cmax/Cmin) in severely burned patients, HPLC; conditions: 100 mg/day
Experimental: as §1

[3] = Tolerability of MCF 100 mg/day in severely burned patients; conditions: 10 severely burned patients
Experimental: as §1
There were 10 patients (eight men; age: 18 to 77 years). […] Peak plasma concentrations after the first and repeated doses of MCF were inversely correlated with % burned TBSA (Spearman's ρ = -0.695 and -0.750 (P < 0.05)), respectively, but not with the time from burn injury. […] One patient had candidemia. The crude mortality was 40%.

CCCCCOc1ccc(-c2cc(-c3ccc(C(=O)N[C@H]4C[C@@H](O)[C@@H](O)NC(=O)[C@@H]5[C@@H](O)[C@@H](C)CN5C(=O)[C@H]([C@H](O)CC(N)=O)NC(=O)[C@H]([C@H](O)[C@@H](O)c5ccc(O)c(OS(=O)(=O)O)c5)NC(=O)[C@@H]5C[C@@H](O)CN5C(=O)[C@H]([C@@H](C)O)NC4=O)cc3)no2)cc1 [MCF, Micafungin] (X1-[Orn(4R-OH,5R-OH)]T[Hyp][hTyr(3S-OH,4S-OH,3'-OSO3H)][Gln(3R-OH)][Pro(3S-OH,4S-Me)]; lactam 1-C)
Correlation of concentrations in burn eschars with % burned TBSA [1]: not correlated | Plasma levels compared with MIC90 against most clinically important Candida species ([2]; after first and multiple doses): above the MIC90 | Plasma Cmin after first dose, median ([2]; median of 10 patients, before next dose, plasma, HPLC): 700 ng/mL | Plasma Cmin at steady state, median ([2]; median of 10 patients, days 4 and 5 of therapy, before next dose, plasma, HPLC): 1000 ng/mL | Plasma Cmax at steady state, median ([2]; median of 10 patients, days 4 and 5 of therapy, end of the infusion, plasma, HPLC): 6400 ng/mL | Plasma Cmax after first dose, median ([2]; median of 10 patients, end of the infusion, plasma, HPLC): 4700 ng/mL | Tolerability [3]: well tolerated
